Test results: US8022206B2 (OSI Pharmaceuticals, LLC, priority 2008, dated 2011)

How the values were obtained:
[1] = target: RON (human) (Homo sapiens, UniProt Q04912); assay: RON (human) AlphaScreen kinase assay, Km of ATP; format: biochemical; settings: AlphaScreen, Km of ATP; read-out: RON biochemical IC50
Protocol: (§1) Someone skilled in the art will appreciate that a variety of assay formats may be used to determine the activity of the compounds of this invention. For example, AlphaScreen (Amplified Luminescent Proximity Homogeneous Assay) technology was used with the kinases described below. Assay ATP concentrations for individual kinases are included in the text.
Desired compound is added in a final concentration of 1% DMSO with control being vehicle of DMSO alone. […] Enzyme is added to initiate the reaction and incubated for 30 min at RT. In subdued light, appropriate amount of PT66 donor and acceptor beads (diluted 1:260 from manufacturer's provision in a 25 mM Tris HCl (pH=7.5), 200 mM NaCl, 100 mM EDTA, 0.3% BSA buffer) are added to the wells. The plates, incubated for 1 h, are read on an AlphaQuest plate reader.

[2] = target: MET (human) (Homo sapiens, UniProt P08581); assay: MET (human) AlphaScreen kinase assay, Km of ATP; format: biochemical; settings: AlphaScreen, Km of ATP; read-out: Met biochemical IC50
Protocol: as §1
Desired compound is added in a final concentration of 1% DMSO with control being vehicle of DMSO alone. MET is diluted to the optimized concentration (optimized on a lot-by-lot basis) in an enzyme diluent buffer (50 mM Tris pH=7.4, 1% glycerol, 0.03% Brij35, 0.24 mM EGTA, 1 mM DTT, and 0.003% BSA). Enzyme is added to initiate the reaction and incubated for 60 min at RT. In subdued light, appropriate amount of PT66 donor and acceptor beads (diluted 1:260 from manufacturer's provision in a 25 mM Tris HCl (pH=7.5), 400 mM NaCl, 100 mM EDTA, 0.3% BSA buffer) are added to the wells. The plates, incubated for 1 h, are read on an AlphaQuest plate reader

MET (human), sequence (P08581 25-1390): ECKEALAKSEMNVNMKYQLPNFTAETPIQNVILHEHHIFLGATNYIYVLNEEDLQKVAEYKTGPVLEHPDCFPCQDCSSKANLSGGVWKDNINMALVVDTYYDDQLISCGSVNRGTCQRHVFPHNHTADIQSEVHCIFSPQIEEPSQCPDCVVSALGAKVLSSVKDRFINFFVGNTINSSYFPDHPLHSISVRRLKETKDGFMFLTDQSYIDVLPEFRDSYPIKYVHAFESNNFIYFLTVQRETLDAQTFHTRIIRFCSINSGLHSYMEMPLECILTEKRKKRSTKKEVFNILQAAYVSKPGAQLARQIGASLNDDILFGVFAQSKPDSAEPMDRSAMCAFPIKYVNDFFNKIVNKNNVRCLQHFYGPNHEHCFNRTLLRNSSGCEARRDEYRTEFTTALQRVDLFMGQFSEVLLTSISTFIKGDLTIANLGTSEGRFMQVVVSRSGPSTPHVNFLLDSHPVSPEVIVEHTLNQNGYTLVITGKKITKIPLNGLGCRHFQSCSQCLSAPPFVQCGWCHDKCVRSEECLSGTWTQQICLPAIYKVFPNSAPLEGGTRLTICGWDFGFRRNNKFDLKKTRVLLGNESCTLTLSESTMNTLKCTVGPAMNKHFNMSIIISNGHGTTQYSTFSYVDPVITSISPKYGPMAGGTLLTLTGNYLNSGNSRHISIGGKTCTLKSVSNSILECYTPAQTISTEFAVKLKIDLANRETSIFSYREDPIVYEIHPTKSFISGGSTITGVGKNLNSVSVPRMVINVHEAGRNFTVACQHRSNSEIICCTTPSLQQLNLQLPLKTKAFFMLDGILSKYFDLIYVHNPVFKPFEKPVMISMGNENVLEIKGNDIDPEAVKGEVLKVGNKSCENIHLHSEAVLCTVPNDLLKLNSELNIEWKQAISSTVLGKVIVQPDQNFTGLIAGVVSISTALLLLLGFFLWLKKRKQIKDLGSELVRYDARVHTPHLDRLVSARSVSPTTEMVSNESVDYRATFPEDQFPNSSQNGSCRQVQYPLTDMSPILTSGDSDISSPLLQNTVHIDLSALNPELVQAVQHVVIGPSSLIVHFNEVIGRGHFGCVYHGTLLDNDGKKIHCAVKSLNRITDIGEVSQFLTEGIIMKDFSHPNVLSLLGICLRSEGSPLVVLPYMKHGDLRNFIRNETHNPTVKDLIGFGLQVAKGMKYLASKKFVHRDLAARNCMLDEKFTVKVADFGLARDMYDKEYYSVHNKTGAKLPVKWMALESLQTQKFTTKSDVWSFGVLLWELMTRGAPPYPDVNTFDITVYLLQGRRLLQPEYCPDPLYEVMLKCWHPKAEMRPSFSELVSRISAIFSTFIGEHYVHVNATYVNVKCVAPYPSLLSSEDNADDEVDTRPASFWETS
RON (human), sequence (Q04912 25-1400): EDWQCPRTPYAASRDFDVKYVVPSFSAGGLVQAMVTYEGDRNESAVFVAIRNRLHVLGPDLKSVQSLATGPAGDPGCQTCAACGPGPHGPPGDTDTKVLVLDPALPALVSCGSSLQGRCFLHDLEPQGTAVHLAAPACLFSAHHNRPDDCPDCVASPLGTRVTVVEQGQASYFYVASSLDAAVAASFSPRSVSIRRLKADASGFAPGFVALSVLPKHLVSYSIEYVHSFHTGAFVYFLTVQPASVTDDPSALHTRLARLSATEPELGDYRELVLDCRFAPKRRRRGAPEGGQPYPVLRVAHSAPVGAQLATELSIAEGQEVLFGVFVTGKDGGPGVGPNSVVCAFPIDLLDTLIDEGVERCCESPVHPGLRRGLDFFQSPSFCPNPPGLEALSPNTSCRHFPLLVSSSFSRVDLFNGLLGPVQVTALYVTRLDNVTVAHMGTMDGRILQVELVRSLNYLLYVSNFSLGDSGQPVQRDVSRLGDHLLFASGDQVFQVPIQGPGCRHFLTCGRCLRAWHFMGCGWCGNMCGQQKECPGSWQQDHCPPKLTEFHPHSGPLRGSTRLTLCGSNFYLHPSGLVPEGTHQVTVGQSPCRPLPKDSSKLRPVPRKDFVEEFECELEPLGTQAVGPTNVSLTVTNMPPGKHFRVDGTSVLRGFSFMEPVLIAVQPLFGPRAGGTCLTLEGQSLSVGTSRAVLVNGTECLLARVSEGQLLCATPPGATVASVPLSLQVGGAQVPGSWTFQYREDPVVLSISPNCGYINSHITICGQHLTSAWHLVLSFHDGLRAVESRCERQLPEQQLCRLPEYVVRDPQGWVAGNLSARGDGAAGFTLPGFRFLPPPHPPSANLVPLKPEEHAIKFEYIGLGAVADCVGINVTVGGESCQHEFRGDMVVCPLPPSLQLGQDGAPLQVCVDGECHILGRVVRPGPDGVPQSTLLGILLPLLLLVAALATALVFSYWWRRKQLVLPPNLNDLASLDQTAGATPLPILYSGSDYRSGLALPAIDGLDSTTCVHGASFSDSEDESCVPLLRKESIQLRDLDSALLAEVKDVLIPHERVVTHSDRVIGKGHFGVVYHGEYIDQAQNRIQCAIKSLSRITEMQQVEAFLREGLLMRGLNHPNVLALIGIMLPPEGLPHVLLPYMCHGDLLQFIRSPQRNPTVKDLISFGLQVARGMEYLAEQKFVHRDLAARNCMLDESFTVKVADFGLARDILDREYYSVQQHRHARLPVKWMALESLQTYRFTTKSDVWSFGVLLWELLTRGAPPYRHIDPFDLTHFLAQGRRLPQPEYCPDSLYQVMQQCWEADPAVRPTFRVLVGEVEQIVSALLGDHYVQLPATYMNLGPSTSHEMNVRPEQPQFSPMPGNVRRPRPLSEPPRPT

| SMILES | IC50 [1] | IC50 [2] |
| --- | --- | --- |
| C[C@@H](Oc1c(N)ncc2c(-c3cccc(C(=O)NCCN4CCCC4)c3)coc12)c1c(Cl)ccc(F)c1Cl [Example 102, 3-{6-Amino-7-[(R)-1-(2,6-dichloro-3-fluorophenyl)ethoxy]-furo[3,2-c]pyridin-3-yl}-N-(2-pyrrolidin-1-ylethyl)benzamide] | 500 to 5000 nM | < 500 nM |
| C[C@@H](Oc1c(N)ncc2c(-c3csc(CN(C)C)c3)coc12)c1c(Cl)ccc(F)c1Cl [Example 303, 7-[(R)-1-(2,6-Dichloro-3-fluorophenyl)ethoxy]-3-(5-dimethyl-aminomethylthiophen-3-yl)furo[3,2-c]pyridin-6-ylamine] | < 500 nM | < 500 nM |
| C[C@H](Oc1c(N)ncc2ccoc12)c1nnc2ccc(-c3ccccc3)nn12 [Example 475, 7-[(1S)-1-(6-phenyl[1,2,4]triazolo[4,3-b]pyridazin-3-yl)ethoxy]furo[3,2-c]pyridin-6-amine] | > 20000 nM | 5000 to 20000 nM |
| C[C@@H](Oc1c(N)ncc2c(C(=O)N(C)C)coc12)c1c(Cl)ccc(F)c1Cl [Example 177, 6-Amino-7-[(R)-1-(2,6-dichloro-3-fluorophenyl)ethoxy]furo[3,2-c]pyridine-3-carboxylic acid dimethylamide] | 5000 to 20000 nM | 500 to 5000 nM |
| C[C@@H](O)C(=O)N1CC=C(c2coc3c(O[C@H](C)c4c(Cl)ccc(F)c4Cl)c(N)ncc23)CC1 [Example 226, (R)-1-(4-{6-Amino-7-[(R)-1-(2,6-dichloro-3-fluorophenyl)ethoxy]-furo[3,2-c]pyridin-3-yl}-3,6-dihydro-2H-pyridin-1-yl)-2-hydroxypropan-1-one] | < 500 nM | < 500 nM |
| CNCC(=O)N1CC=C(c2coc3c(O[C@H](C)c4c(Cl)ccc(F)c4Cl)c(N)ncc23)CC1 [Example 250, 1-[4-{6-Amino-7-[(1R)-1-(2,6-dichloro-3-fluorophenyl)ethoxy]furo[3,2-c]pyridin-3-yl}-3,6-dihydropyridin-1(2H)-yl]-2-(methylamino)ethanone] | < 500 nM | < 500 nM |
| C[C@@H](Oc1c(N)ncc2c(-c3ccc(CN4CCOCC4)s3)coc12)c1c(Cl)ccc(F)c1Cl [Example 291] | 500 to 5000 nM | 500 to 5000 nM |
| C[C@@H](Oc1c(N)ncc2c(-c3ccc(Cn4cccn4)cc3)coc12)c1c(Cl)ccc(F)c1Cl [Example 110, 7-[(R)-1-(2,6-Dichloro-3-fluorophenyl)ethoxy]-3-(4-pyrazol-1-ylmethylphenyl)-furo[3,2-c]pyridin-6-ylamine] | 500 to 5000 nM | 500 to 5000 nM |
| Cc1ccccc1C(C)Oc1c(N)ncc2c(-c3cnn(C4CCNCC4)c3)coc12 (stereo not drawn) [Example 342, 3-(1-Piperidin-4-yl-1H-pyrazol-4-yl)-7-(1-o-tolylethoxy)furo[3,2-c]pyridin-6-ylamine] | 500 to 5000 nM | < 500 nM |
| C[C@@H](Oc1c(N)ncc2c(C3=CCN(C4CNC4)CC3)coc12)c1c(Cl)ccc(F)c1Cl [Example 322, 3-(1-Azetidin-3-yl-1,2,3,6-tetrahydropyridin-4-yl)-7-[(R)-1-(2,6-dichloro-3-fluorophenyl)ethoxy]furo[3,2-c]pyridin-6-ylamine] | < 500 nM | < 500 nM |
| C[C@@H](Oc1c(N)ncc2c(-c3ccc(C(=O)NCCCO)cc3)coc12)c1c(Cl)ccc(F)c1Cl [Example 288, 4-{6-Amino-7-[(R)-1-(2,6-dichloro-3-fluorophenyl)ethoxy]furo[3,2-c]pyridin-3-yl}-N-(3-hydroxypropyl)benzamide] | 500 to 5000 nM | 500 to 5000 nM |
| C[C@@H](Oc1c(N)ncc2c(-c3ccc(C(=O)NCCO)cc3)coc12)c1c(Cl)ccc(F)c1Cl [Example 287, 4-{6-Amino-7-[(R)-1-(2,6-dichloro-3-fluorophenyl)ethoxy]furo[3,2-c]pyridin-3-yl}-N-(2-hydroxyethyl)benzamide] | 500 to 5000 nM | 500 to 5000 nM |
